Literature values as cited in patent US20260166131A1, “METHOD FOR PROMOTING PATHOLOGICAL TDP-43 PROTEIN DEGRADATION, AND DRUG” (TALENGEN INTERNATIONAL LIMITED, priority 2022, published 2026).
Values joined by “and” are separate entries in the source; they are usually repeats but may differ in a detail not shown here. Equal values may be shown once. Read-outs that look alike come from different tables or passages of the source.

System: ALS patients
Conditions: for ALSFRS-R score before dosing: literature
[1] = Edaravone 6 months, intravenous injection
[2] = Riluzole 6 months, taking orally

| Compound | ALSFRS-R score after dosing [1] | ALSFRS-R scoring change [1] | ALSFRS-R score before dosing (Edaravone) | ALSFRS-R score after dosing [2] | ALSFRS-R scoring change [2] | ALSFRS-R score before dosing (Riluzole) |
| --- | --- | --- | --- | --- | --- | --- |
| CC1=NN(c2ccccc2)C(=O)C1 [Edaravone] | 36.89 | −5.01±0.64 points and −5.01 points | 41.9 |  |  |  |
| Nc1nc2ccc(OC(F)(F)F)cc2s1 [Riluzole] |  |  |  | 33.2 | −7.0+7.1 points and −7.0 points | 40.2 |
